# According to the supplement of paper PMC10307832:
# Assays:
# Assay in all cases: relative viability (nuclei count vs DMSO), 5 days (fraction); higher = more cells survive
# AZ628 + Lapatinib = compound: CC1=C(C=C(C=C1)NC(=O)C2=CC(=CC=C2)C(C)(C)C#N)NC3=CC4=C(C=C3)N=CN(C4=O)C [AZ628] + CS(=O)(=O)CCNCc1ccc(-c2ccc3ncnc(Nc4ccc(OCc5cccc(F)c5)c(Cl)c4)c3c2)o1 [Lapatinib] (partner 2 µM)
# How it was run: (§1)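 Five library-drug doses in √10 steps were combined with a fixed anchor-drug dose, or a single drug was given alone, by pin tool to lung cancer cell lines in 1536-well plates the day after seeding. Nuclei were stained and counted after 5 days. Relative viability is the nuclei count in treated wells over that in vehicle wells, taken as the median of duplicate plates.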
# QS11 + Luminespib = compound: C1CC2=C(C1)C=C(C=C2)OC3=NC(=C4C(=N3)N(C=N4)CC5=CC=C(C=C5)C6=CC=CC=C6)N[C@@H](CC7=CC=CC=C7)CO [QS11] + CCNC(=O)c1noc(-c2cc(C(C)C)c(O)cc2O)c1-c1ccc(CN2CCOCC2)cc1 [Luminespib] (partner 0.01 µM)
# How it was run: as §1
# QS11 + AZD7762 = compound: C1CC2=C(C1)C=C(C=C2)OC3=NC(=C4C(=N3)N(C=N4)CC5=CC=C(C=C5)C6=CC=CC=C6)N[C@@H](CC7=CC=CC=C7)CO [QS11] + NC(=O)Nc1cc(-c2cccc(F)c2)sc1C(=O)N[C@H]1CCCNC1 [AZD7762] (partner 0.2 µM)
# How it was run: as §1
# QS11 + Crizotinib = compound: C1CC2=C(C1)C=C(C=C2)OC3=NC(=C4C(=N3)N(C=N4)CC5=CC=C(C=C5)C6=CC=CC=C6)N[C@@H](CC7=CC=CC=C7)CO [QS11] + C[C@@H](Oc1cc(-c2cnn(C3CCNCC3)c2)cnc1N)c1c(Cl)ccc(F)c1Cl [Crizotinib] (partner 1 µM)
# How it was run: as §1
Cell Line,relative viability (AZ628 + Lapatinib; first compound 0.08 µM),relative viability (AZ628 + Lapatinib; first compound 0.253 µM),relative viability (AZ628 + Lapatinib; first compound 0.8 µM),relative viability (AZ628 + Lapatinib; first compound 2.53 µM),relative viability (AZ628 + Lapatinib; first compound 8 µM),relative viability (QS11 + Luminespib; first compound 0.08 µM),relative viability (QS11 + Luminespib; first compound 0.253 µM),relative viability (QS11 + Luminespib; first compound 0.8 µM),relative viability (QS11 + Luminespib; first compound 2.53 µM),relative viability (QS11 + Luminespib; first compound 8 µM),relative viability (QS11 + AZD7762; first compound 0.08 µM),relative viability (QS11 + AZD7762; first compound 0.253 µM),relative viability (QS11 + AZD7762; first compound 0.8 µM),relative viability (QS11 + AZD7762; first compound 2.53 µM),relative viability (QS11 + AZD7762; first compound 8 µM),relative viability (QS11 + Crizotinib; first compound 0.08 µM),relative viability (QS11 + Crizotinib; first compound 0.253 µM),relative viability (QS11 + Crizotinib; first compound 0.8 µM),relative viability (QS11 + Crizotinib; first compound 2.53 µM),relative viability (QS11 + Crizotinib; first compound 8 µM)
201T,1.01,0.988,1.06,1.12,1.18,1.08,1.12,0.815,1.01,0.692,0.669,0.748,0.591,0.619,0.617,1.04,1.07,0.778,1.03,0.947
A-427,1.1,0.599,0.99,1.06,0.773,0.918,0.885,–,1.02,1.05,0.673,0.744,–,0.856,1.05,0.779,0.885,–,0.829,0.821
ABC-1,1.04,1.09,1.08,1.16,0.985,0.656,0.861,–,0.828,0.842,0.74,0.776,0.732,0.774,0.843,0.942,1.18,0.959,0.913,0.912
BEN,0.775,0.554,0.661,0.815,0.545,0.241,0.567,0.366,0.507,0.31,0.577,0.66,0.929,0.773,0.79,0.801,1.06,0.978,0.736,1.09
CAL-12T,0.884,–,0.599,0.616,0.573,0.608,0.578,0.478,0.362,0.551,0.736,0.572,0.546,0.596,0.551,0.579,0.733,0.626,0.394,0.512
ChaGo-K-1,–,–,–,–,–,0.506,0.609,0.679,0.664,0.655,–,0.862,1,0.941,1,–,1.24,1.26,0.957,1.23
EKVX,0.232,0.206,0.216,0.219,0.257,0.907,0.732,–,0.848,1.03,0.693,0.743,0.627,0.649,0.755,1.13,1.03,–,0.749,1.2
EMC-BAC-2,0.9,0.853,0.817,0.844,0.933,1.28,1.27,0.817,0.953,0.961,1.1,0.99,0.957,0.989,0.856,0.892,0.75,0.529,0.741,0.541
EPLC-272H,0.837,0.88,1.08,0.932,0.54,–,0.269,0.311,0.385,0.284,–,0.202,0.246,0.278,0.247,0.861,0.962,1.03,0.835,1.13
H3255,0.258,0.256,0.292,0.269,0.251,0.818,1.06,–,0.966,0.961,0.931,0.946,0.634,1.01,0.902,0.869,0.973,–,1.02,0.847
HARA,0.742,0.633,0.57,0.671,0.488,0.675,0.747,–,0.845,1.19,0.63,–,0.267,0.454,0.329,1.11,1.1,–,1.1,1.04
HCC-15,0.949,0.808,0.713,0.724,0.558,0.334,0.311,0.332,0.341,0.389,1.27,1.26,0.877,1.22,0.461,0.807,0.927,–,0.803,0.779
HCC-44,0.982,1.06,1.01,1.02,0.844,1.08,1.18,0.805,0.937,1.24,1.11,0.995,0.65,1.02,1.02,0.868,0.729,0.577,0.688,0.519
HCC-827,0.238,0.172,0.208,0.191,0.191,0.587,0.508,0.597,0.694,0.675,0.194,0.201,0.234,0.307,0.187,0.917,0.914,0.643,0.854,0.787
HOP-62,1.12,0.978,1.01,0.957,0.631,0.816,1.03,0.828,0.942,0.934,0.556,0.611,0.538,0.608,0.582,0.853,0.863,0.846,0.703,0.45
LC-2-ad,0.949,0.867,0.446,0.72,0.474,0.851,0.981,0.857,0.956,1.17,0.726,0.865,0.666,0.926,1.03,0.468,0.479,0.398,0.443,0.495
LCLC-103H,–,–,–,–,–,0.661,1.17,0.747,0.915,1.02,0.861,0.775,–,0.772,0.881,1.01,1.08,0.808,1,1.08
LK-2,1.06,0.56,0.885,0.799,0.537,0.164,0.229,0.178,0.172,0.146,0.388,0.643,0.527,0.412,0.455,0.25,0.221,0.215,0.266,0.214

Cell Line,relative viability (AZ628 + Lapatinib; first compound 0.08 µM),relative viability (AZ628 + Lapatinib; first compound 0.253 µM),relative viability (AZ628 + Lapatinib; first compound 0.8 µM),relative viability (AZ628 + Lapatinib; first compound 2.53 µM),relative viability (AZ628 + Lapatinib; first compound 8 µM),relative viability (QS11 + Luminespib; first compound 0.08 µM),relative viability (QS11 + Luminespib; first compound 0.253 µM),relative viability (QS11 + Luminespib; first compound 0.8 µM),relative viability (QS11 + Luminespib; first compound 2.53 µM),relative viability (QS11 + Luminespib; first compound 8 µM),relative viability (QS11 + AZD7762; first compound 0.08 µM),relative viability (QS11 + AZD7762; first compound 0.253 µM),relative viability (QS11 + AZD7762; first compound 0.8 µM),relative viability (QS11 + AZD7762; first compound 2.53 µM),relative viability (QS11 + AZD7762; first compound 8 µM),relative viability (QS11 + Crizotinib; first compound 0.08 µM),relative viability (QS11 + Crizotinib; first compound 0.253 µM),relative viability (QS11 + Crizotinib; first compound 0.8 µM),relative viability (QS11 + Crizotinib; first compound 2.53 µM),relative viability (QS11 + Crizotinib; first compound 8 µM)
LOU-NH91,0.776,0.738,0.724,0.67,0.626,0.361,0.361,0.34,0.308,0.368,0.764,0.707,0.751,0.719,0.818,0.713,0.709,–,0.694,0.744
LU99A,0.973,0.966,1.11,0.943,0.573,0.238,0.269,0.284,0.273,0.335,0.326,0.348,0.398,0.362,0.239,0.554,0.586,0.544,0.446,0.385
LXF-289,0.882,0.884,0.79,0.843,0.58,0.544,0.739,0.544,0.519,0.551,1.14,1.08,0.899,1,0.93,0.814,0.807,0.678,0.687,0.617
NCI-H23,1.18,0.958,0.698,0.722,0.528,0.212,0.237,0.208,0.227,0.182,0.229,0.252,0.278,0.208,0.216,0.473,0.462,0.473,0.385,0.44
NCI-H322M,0.674,0.737,0.747,0.646,0.657,0.823,0.863,0.911,0.99,1.24,0.525,0.515,0.477,0.53,0.552,0.934,0.835,0.79,0.754,1
NCI-H358,0.446,0.422,0.404,0.432,0.339,0.435,0.457,0.479,0.414,0.444,0.542,0.474,0.529,0.6,0.681,0.723,0.525,0.457,0.402,0.379
NCI-H441,–,–,–,–,–,0.376,0.286,0.329,0.315,0.328,1.02,1.39,0.963,0.964,0.942,0.776,0.847,0.621,0.6,0.707
NCI-H460,1.08,0.868,0.853,0.87,0.559,0.0331,0.0356,0.0316,0.0243,0.0438,0.703,0.644,0.493,0.638,0.889,1.17,0.868,0.684,0.31,0.177
NCI-H522,–,–,–,–,–,1.01,1.35,0.945,0.98,1.17,0.798,0.871,0.878,1.11,0.863,–,–,–,–,–
NCI-H596,1.03,1.08,1.11,1.08,1.27,0.87,1.09,0.919,0.829,0.934,1.07,0.94,1.22,1.03,1.27,1.03,0.862,0.963,0.991,1.04
NCI-H647,1.25,1.02,0.982,1.19,0.894,0.155,0.321,0.118,0.171,0.141,0.441,0.302,0.592,0.385,0.565,1.25,1.3,0.937,0.992,0.706
NCI-H650,1.2,0.778,1.08,1.2,0.898,0.758,0.806,0.802,0.654,0.868,0.762,0.981,0.775,1.05,0.645,0.722,0.726,0.753,0.55,0.607
NCI-H1395,1.04,1,0.942,0.933,0.916,0.795,0.549,0.762,0.843,0.819,0.389,0.382,0.4,0.432,0.404,–,–,–,–,–
NCI-H1703,0.763,0.393,0.389,0.246,0.286,–,–,–,–,–,–,0.12,0.121,0.121,0.168,1.08,0.749,0.585,0.73,0.951
NCI-H1793,0.927,0.627,0.573,0.665,0.579,0.137,0.177,0.171,0.189,0.158,0.449,0.519,0.514,0.407,0.418,–,–,–,–,–
NCI-H2342,–,–,–,–,–,0.787,0.754,0.721,0.697,0.746,0.489,0.47,0.502,0.488,0.456,–,–,–,–,–
SW 900,–,–,–,–,–,0.18,0.197,0.166,0.17,0.178,0.603,0.549,0.611,0.502,0.504,–,–,–,–,–
